Test results reported in US7879838B2, “Heteroaryl substituted pyrazinyl-piperazine-piperidines with CXCR3 antagonist activity” (Schering Corporation, priority 2005, dated 2011).

biological target: T1, Human CXCR3 (N-delta 4) (Homo sapiens, UniProt P49682); assay: Human CXCR3 (N-delta 4) scintillation proximity assay (SPA), [125I] IP-10 binding to Ba/F3-hCXCR3 membranes; settings: IC50 rating; 25 pM [125I] IP-10, membranes of Ba/F3 cells expressing human CXCR3 (N-delta 4)
T1 construct: CD8 leader (N); Flag tag; expressed in transfected cells; membranes prepared
T1 sequence (P49682 5-368 limits assumed): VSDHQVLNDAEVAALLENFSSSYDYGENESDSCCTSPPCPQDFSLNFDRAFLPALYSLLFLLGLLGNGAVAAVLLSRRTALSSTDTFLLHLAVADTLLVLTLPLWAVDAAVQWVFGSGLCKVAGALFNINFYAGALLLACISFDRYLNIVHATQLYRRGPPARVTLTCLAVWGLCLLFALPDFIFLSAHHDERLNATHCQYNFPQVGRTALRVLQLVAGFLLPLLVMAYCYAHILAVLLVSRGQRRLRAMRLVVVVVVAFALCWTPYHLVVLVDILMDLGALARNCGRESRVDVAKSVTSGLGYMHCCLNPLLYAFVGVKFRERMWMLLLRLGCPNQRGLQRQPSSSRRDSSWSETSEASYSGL
Excerpt: The inventive compounds can readily be evaluated to determine activity at The CXCR3 receptors by known methods, such as, for example, Development of Human CXCR3 (N-delta 4) Binding Assay.
Cloning and Expression of Human CXCR3 (N-delta 4):
The DNA encoding human CXCR3 was cloned by PCR using human genomic DNA (Promega, Madison, Wis.) as a template. The PCR primers were designed based on the published sequence of human orphan receptor GPR9 (1) with incorporated restriction sites, a Kozak consensus sequence, CD8 leader and Flag tag. The PCR product was subcloned into the mammalian expression vector pME18Sneo, a derivative of the SR-alpha expression vector (designated as pME18Sneo-hCXCR3 (N-delta 4).
IL-3-dependent mouse pro-B cells Ba/F3 were transfected by electroporation in 0.4 ml Dulbecco's PBS containing 4×10^6 cells with 20 μg of pME18Sneo-hCXCR3 (N-delta 4) plasmid DNA. Cells were pulsed at 400 Volts, 100 OHMs, 960 μFd. The transfected cells were under selection with 1 mg/ml G418 (Life Technologies, Gaithersburg, Md.). G418-resistant Ba/F3 clones were screened for CXCR3 expression by specific binding of [^125I] IP-10 (NEN Life Science Products, Boston, Mass.).
Preparation of Ba/F3-hCXCR3 (N-delta 4) Membranes
Ba/F3 cells expressing human CXCR3 (N-delta 4) were pelleted and resuspended in the lysis buffer containing 10 mM HEPES, pH 7.5 and Complete® protease inhibitors (1 tablet per 100 ml) (Boehringer Mannheim, Indianapolis, Ind.) at a cell density of 20×10^6 cells per ml. After 5 minutes incubation on ice, cells were transferred to 4639 cell disruption bomb (Parr Instrument, Moline, Ill.) and applied with 1,500 psi of nitrogen for 30 minutes on ice. Large cellular debris was removed by centrifugation at 1,000×g. Cell membrane in the supernatant was sedimented at 100,000×g. The membrane was resuspended in the lysis buffer supplemented with 10% sucrose and stored at −80° C. Total protein concentration of the membrane was determined by BCA method from Pierce (Rockford, Ill.).
Human CXCR3 (N-delta 4) Scintillation Proximity Assay (SPA)
For each assay point, 2 μg of membrane was preincubated for 1 hr with 300 μg wheat germ agglutinin (WGA) coated SPA beads (Amersham, Arlington Heights, Ill.) in the binding buffer (50 mM HEPES, 1 mM CaCl2, 5 mM MgCl2, 125 mM NaCl, 0.002% NaN3, 1.0% BSA) at room temperature. The beads were spun down, washed once, resuspended in the binding buffer and transferred to a 96-well Isoplate (Wallac, Gaithersburg, Md.). 25 pM of [^125I] IP-10 with tested compounds in a series of titration were added to start the reaction. After 3 hr reaction at room temperature, the amount of [^125I] IP-10 bound to the SPA beads was determined with a Wallac 1450 Microbeta counter.
The Ki values for the various example compounds of the present invention are given in the afore-mentioned Table 1. From these values, it would be apparent to the skilled artisan that the compounds of the invention have excellent utility CXCR3 antagonists.

| SMILES | IC50 [nM] |
| --- | --- |
| CC[C@H]1CN(c2nc(N)c(C(=O)NC3CC3)nc2Cl)CCN1C1CCN(C(=O)c2cc(F)c(Cl)nc2N)CC1 [compound 6] | < 25 |
| CC[C@H]1CN(c2nc(N)c(C(=O)NC3CC3)nc2Cl)[C@H](C)CN1C1CCN(C(=O)c2ccc(Cl)nc2N)CC1 [compound 177] | < 25 |
| CC[C@H]1CN(c2nc(N)c(C(=O)NCCO)nc2Cl)CCN1C1CCN(C(=O)c2ccc(Cl)nc2Cl)CC1 [compound 40] | < 25 |
| CC[C@H]1CN(c2nc(N)c(C(=O)NCCNS(C)(=O)=O)nc2Cl)CCN1C1CCN(C(=O)c2ccc(Cl)nc2N)CC1 [compound 50] | 25 to 100 |
| CC[C@H]1CN(c2nc(N)c(C(=O)NC)nc2Cl)CCN1C1CCN(C(=O)c2cc(Cl)nc(Cl)c2)CC1 [compound 116] | > 100 |
| CC[C@H]1CN(c2nc(N)c(C(=O)NNC(=O)C3CC3)nc2Cl)CCN1C1CCN(C(=O)c2ccc(Cl)nc2N)CC1 [compound 86] | > 100 |
| CC[C@H]1CN(c2nc(N)c(C(=O)Nc3ccncc3)nc2Cl)CCN1C1CCN(C(=O)c2ccc(Cl)nc2N)CC1 [compound 130] | < 25 |
| CC[C@H]1CN(c2nc(N)c(C(=O)NC3CC3)nc2Cl)CCN1C1CCN(C(=O)c2ccc(Cl)nc2N)CC1 [compound 4] | < 25 |
| CC[C@H]1CN(c2ncc(C(=O)NC[C@@H](C)O)nc2Cl)CCN1C1CCN(C(=O)c2ccc(Cl)nc2N)CC1 [compound 11] | < 25 |
| CCNC(=O)c1cnc(N2CCN(C3CCN(C(=O)c4ccc(Cl)nc4N)CC3)[C@@H](CC)C2)c(C)n1 [compound 126] | < 25 |
| CC[C@H]1CN(c2nc(N)c(C(=O)NCCO)nc2Cl)CCN1C1CCN(Cc2ccc(N3CCOCC3)nc2Cl)CC1 [compound 92] | > 100 |
| CC[C@H]1CN(c2ncc(C(N)=O)nc2C(F)(F)F)CCN1C1CCN(C(=O)c2ccc(Cl)nc2N)CC1 [compound 121] | < 25 |
| CC[C@H]1CN(c2nc(N)c(C(N)=O)nc2Cl)CCN1C1CCN(C(=O)c2ccc(OC)nc2N)CC1 [compound 135] | 25 to 100 |
| CC[C@H]1CN(c2nc(N)c(C(=O)NC3CC3)nc2Cl)CCN1C1CCN(C(=O)c2sc(C)nc2C)CC1 [compound 139] | > 100 |
| CC[C@H]1CN(c2nc(N)c(C(=O)N3CC(O)C3)nc2Cl)CCN1C1CCN(C(=O)c2ccc(Cl)nc2N)CC1 [compound 87] | > 100 |
| CC[C@H]1CN(c2nc(N)c(C(=O)NC3CC3)nc2Cl)CCN1C1CCN(C(=O)c2cc(F)c(Cl)nc2Cl)CC1 [compound 16] | < 25 |
| CC[C@H]1CN(c2nc(N)c(C(=O)NCCO)nc2Cl)CCN1C1CCN(Cc2ccc(Cl)nn2)CC1 [compound 85] | > 100 |
| CC[C@H]1CN(c2nc(N)c(C(=O)NCCO)nc2Cl)CCN1C1CCN(C(=O)c2ccc(C)nc2O)CC1 [compound 103] | > 100 |
| CCNC(=N)NC(=O)c1nc(Cl)c(N2CCN(C3CCN(C(=O)c4ccc(Cl)nc4N)CC3)[C@@H](CC)C2)nc1N [Compound No. 5] | < 25 |
| CC[C@H]1CN(c2nc(N)c(C(=O)NCCO)nc2Cl)CCN1C1CCN(C(=O)c2ccc(Cl)nc2N)CC1 [compound 7] | < 25 |
| CC[C@H]1CN(c2nc(NCC3CC3)c(C(=O)OC)nc2Cl)CCN1C1CCN(C(=O)c2ccc(Cl)nc2N)CC1 [compound 105] | > 100 |
| CC[C@H]1CN(c2nc(N)c(C(=O)NC3(CO)CC3)nc2Cl)CCN1C1CCN(C(=O)c2ccc(Cl)nc2N)CC1 [compound 24] | < 25 |
| CC[C@H]1CN(c2nc(N)c(C(=O)NC3CCCC3O)nc2Cl)CCN1C1CCN(C(=O)c2ccc(Cl)nc2N)CC1 (stereo partly shown) [compound 27] | < 25 |
| CC[C@H]1CN(c2ncc(C(=O)OC)nc2C)[C@H](C)CN1C1CCN(C(=O)c2ccc(Cl)nc2N)CC1 [compound 164] | < 25 |
| CC[C@H]1CN(c2nc(N)c(C(=O)NC3CC3)nc2Cl)CCN1C1CCN(Cc2cc(-c3ccccc3)oc2C)CC1 [compound 141] | < 25 |
| CC[C@H]1CN(c2nc(N)c(C(=O)NCCO)nc2C)CCN1C1CCN(C(=O)c2ccc(Cl)nc2N)CC1 [compound 171] | < 25 |
| CC[C@H]1CN(c2nc(N)c(C(=O)NCCO)nc2Cl)CCN1C1CCN(Cc2ccc(Cl)nc2Cl)CC1 [compound 29] | < 25 |
| CC[C@H]1CN(c2ncc(C(N)=O)nc2C)[C@H](C)CN1C1CCN(C(=O)c2ccc(Cl)nc2N)CC1 [compound 128] | < 25 |
| CC[C@H]1CN(c2nc(N)c(C(=O)N[C@H]3CC[C@H]3O)nc2Cl)CCN1C1CCN(C(=O)c2ccc(Cl)nc2N)CC1 [Compound No. 15] | < 25 |

Second part, the compound after the results:

| IC50 [nM] | SMILES |
| --- | --- |
| 25 to 100 | CC[C@H]1CN(c2nc(N)c(C(=O)Nc3cc(C)[nH]n3)nc2Cl)CCN1C1CCN(C(=O)c2ccc(Cl)nc2N)CC1 [compound 132] |
| > 100 | CC[C@H]1CN(c2nc(N)c(C(=O)NCCO)nc2Cl)CCN1C1CCN(Cc2ccc(NC3CC3)nc2Cl)CC1 [compound 97] |
| > 100 | CC[C@H]1CN(c2nc(N)c(C(N)=O)nc2Cl)CCN1C1CCN(C(=O)c2ccc(Cl)n3ccnc23)CC1 [compound 114] |
| < 25 | CC[C@H]1CN(c2nc(N)c(C(=O)NC3CC3)nc2Cl)CCN1C1CCN(C(=O)c2ccc(Cl)nc2Cl)CC1 [compound 19] |
| 25 to 100 | CC[C@H]1CN(c2nc(N)c(C(=O)NCCO)nc2Cl)CCN1C1CCN(C(=O)c2ccc(C(F)(F)F)nc2Cl)CC1 [compound 68] |
| < 25 | CC[C@H]1CN(c2ncc(C(=O)NCCO)nc2C(F)(F)F)CCN1C1CCN(C(=O)c2ccc(Cl)nc2N)CC1 [compound 180] |
| < 25 | CC[C@H]1CN(c2nc(NC(=O)N(C)C)c(C(=O)NC3CC3)nc2Cl)CCN1C1CCN(C(=O)c2ccc(Cl)nc2N)CC1 [compound 38] |
| < 25 | CC[C@H]1CN(c2ncc(C(=O)NCCO)nc2C)CCN1C1CCN(C(=O)c2ccc(Cl)nc2N)CC1 [compound 124] |
| > 100 | CC[C@H]1CN(c2nc(N)c(C(=O)NC3CC3)nc2Cl)CCN1C1CCN(C(=O)c2cc(F)c(N)nc2Cl)CC1 [compound 78] |
| > 100 | CC[C@H]1CN(c2nc(N)c(C(=O)NCCO)nc2Cl)CCN1C1CCN(C(=O)c2ccc(Cl)nc2NC)CC1 [compound 91] |
| > 100 | CC[C@H]1CN(c2nc(N)c(C(N)=O)nc2Cl)CCN1C1CCN(C(=O)c2ccc(Cl)c3cc[nH]c23)CC1 [compound 152] |
| 25 to 100 | CC[C@H]1CN(c2nc(N)c(C(=O)NC)nc2Cl)CCN1C1CCN(C(=O)c2ccc(OC)nc2N)CC1 [compound 131] |
| > 100 | CC[C@H]1CN(c2nc(N)c(C(=O)NN)nc2Cl)CCN1C1CCN(S(=O)(=O)c2c(C)noc2C)CC1 [compound 111] |
| < 25 | CC[C@H]1CN(c2nc(N)c(C(=O)NC[C@@H](C)O)nc2Cl)CCN1C1CCN(Cc2ccc(Cl)nc2N)CC1 [compound 2] |
| < 25 | CC[C@H]1CN(c2ncc(C(N)=O)nc2Cl)CCN1C1CCN(C(=O)c2ccc(Cl)nc2N)CC1 [compound 10] |
| < 25 | CC[C@H]1CN(c2nc(NCCOC)c(C(=O)NC3CC3)nc2Cl)CCN1C1CCN(C(=O)c2ccc(Cl)nc2N)CC1 [compound 17] |
| > 100 | CC[C@H]1CN(c2nc(N)c(C(N)=O)nc2Cl)CCN1C1CCN(C(=O)c2cc(F)c(N)nc2Cl)CC1 [compound 96] |
| > 100 | CC[C@H]1CN(c2nc(N)c(C(=O)NC)nc2Cl)CCN1C1CCN(Cc2cc(Cl)nc(Cl)c2)CC1 [compound 108] |
| > 100 | CC[C@H]1CN(c2nc(N)c(C(=O)NCCCN(C)C)nc2Cl)CCN1C1CCN(C(=O)c2ccc(Cl)nc2N)CC1 [compound 98] |
| < 25 | CC[C@H]1CN(c2nc(N)c(C(N)=O)nc2C)CCN1C1CCN(C(=O)c2ccc(Cl)nc2N)CC1 [compound 162] |
